Results taken from patent US20260174858A1, “TARGETING THE m6A MRNA DEMETHYLASE FTO” (University of Virginia Patent Foundation, priority 2022, published 2026).

Assays:
mouse BMDMs = experiment: VEGFA release in mouse BMDMs (ELISA); type: cell-based; details: FTOi 20 uM 12 hours, with or without LPS 250 ng/ml 6 hours, supernatant ELISA
Method: (§1) Primary WT or mutant mouse bone marrow derived macrophages (BMDMs) were isolated as previously described (4). BMDMs were cultured in IMDM (Gibco) basal medium containing 10% fetal bovine serum (FBS), 30% L929 supernatants, nonessential amino acids, sodium pyruvate, 2-mercaptoethanol, and antibiotics. THP-1 cells were cultured in RPMI 1640 medium with 10% FBS and antibiotics. Human RPE cells were isolated as previously described and cultured in DMEM medium with 10% FBS and antibiotics. All cells were maintained at 37° C. in a 5% CO2 environment.
The RPE-choroid complex was isolated from mouse eyes on day 3 after laser injury and treatment with FTO inhibitor or vehicle. Eye tissues were lysed by sonication with immunoprecipitation assay (RIPA) buffer (Sigma-Aldrich, R0278, USA) containing protease inhibitor (Sigma-Aldrich, 11836170001, USA), on ice for 15 minutes. The lysate was centrifuged at 20,000×g for 15 minutes at 4° C., and total protein in the lysates was quantified using the Thermo Scientific™ Pierce™ BCA™ Protein Assay (Fisher Scientific, PI23225, USA). VEGFA protein levels in the supernatants were measured by VEGF DuoSet ELISA (R&D Systems, DY493, USA), following the manufacturer's instructions. Mouse BMDMs or human THP-1 cells (5×10^5 cells per well) were plated into six-well plates in complete medium and allowed to adhere overnight. Cells were then incubated for 24 hours in the absence or presence of various doses of FTO inhibitor or METTL3 inhibitors (STM2457, Selleck Chemicals). […] The siRNAs (siFto: 5′-P.G.A.G.G.A.U.C.C.A.A.G.G.C.A.A.A.G.A.U.dT.dT 3′ (SEQ ID NO: 38); siCtrl: 5′-P.U.A.A.G.G.C.U.A.U.G.A.A.G.A.G.A.U.dT.dT 3′; SEQ ID NO: 39), were designed and synthesized by GE Healthcare Dharmacon, were transfected twice with BMDMs by using DharmaFECT 4 Transfection Reagent (Dharmacon, T-2004, USA). VEGFA levels in the supernatants were measured by mouse or human VEGF DuoSet ELISA (R&D Systems, DY493 or DY293B, USA), following the manufacturer's instructions.

Human THP-1 cells = experiment: VEGFA release in human THP-1 cells (ELISA); type: cell-based; details: indicated dosage of FTOi, 24 hours or 48 hours; supernatant ELISA
Method: as §1
The RPE-choroid complex was isolated from mouse eyes on day 3 after laser injury and treatment with FTO inhibitor or vehicle. Eye tissues were lysed by sonication with immunoprecipitation assay (RIPA) buffer (Sigma-Aldrich, R0278, USA) containing protease inhibitor (Sigma-Aldrich, 11836170001, USA), on ice for 15 minutes. The lysate was centrifuged at 20,000×g for 15 minutes at 4° C., and total protein in the lysates was quantified using the Thermo Scientific™ Pierce™ BCA™ Protein Assay (Fisher Scientific, PI23225, USA). VEGFA protein levels in the supernatants were measured by VEGF DuoSet ELISA (R&D Systems, DY493, USA), following the manufacturer's instructions. […] VEGFA levels in the supernatants were measured by mouse or human VEGF DuoSet ELISA (R&D Systems, DY493 or DY293B, USA), following the manufacturer's instructions.

Wild type C57BL/6J mice = experiment: VEGFA ELISA of RPE-choroid after laser injury; type: in vivo, mouse; details: FTOi i.p. plus 25 ng intravitreous, day 3 after laser injury
Method: Laser photocoagulation (532 nm, 180 mW, 100 ms, 75 μm) (OcuLight GL; IRIDEX Corp., Mountain View, CA, USA) was performed bilaterally (volume studies: 4 spots per eye; RNA analyses: 10 spots per eye) in 6- to 8-week-old mice on day 0 to induce CNV as previously described 1-3. For drug treatment, the mice pretreated with FTO inhibitor (FB23-2, SML2694, Sigma) or vehicle (DMSO) through intraperitoneal injection (i.p, 2 mg/kg). Then, the mice were subjected to laser photocoagulation followed by intravitreous injection of the FTO inhibitor (25 ng/0.5 μl per eye) or vehicle. At day 3 after laser injury, the mice were administered the FTO inhibitor (2 mg/kg) or vehicle via intraperitoneal injection. At day 7, the eyes were collected for fluorescein labeled-isolectin B4 and F4/80 staining and for neovascular volume quantification.
The RPE-choroid complex was isolated from mouse eyes on day 3 after laser injury and treatment with FTO inhibitor or vehicle. […] The lysate was centrifuged at 20,000×g for 15 minutes at 4° C., and total protein in the lysates was quantified using the Thermo Scientific™ Pierce™ BCA™ Protein Assay (Fisher Scientific, PI23225, USA). VEGFA protein levels in the supernatants were measured by VEGF DuoSet ELISA (R&D Systems, DY493, USA), following the manufacturer's instructions. […]

human ARPE-19 cells = experiment: VEGFA release in human ARPE-19 cells; type: cell-based
Vegfa mRNA = experiment: MeRIP-qPCR of m6A methylated Vegfa mRNA in BMDMs; type: cell-based, mouse; details: BMDMs treated with FTOi vs DMSO, MeRIP and qPCR
Method: To validate m6A methylation of Vegfa mRNA and perturbations induced by FTOi treatment, we performed MeRIP-qPCR by following the EpiMark® N6-Methyladenosine Enrichment Kit protocol (New England Biolabs, E1610S, USA). Briefly, total RNA was extracted from mouse BMDMs treated with 5 μM of FTO inhibitor or vehicle for 24 hours by using TRIzol™ Reagent (Thermo Fisher Scientific, 15596018, USA). 100 μg of total RNA from each group was mixed with unmodified RNA (Negative control, NC). Next, 20 μg of these mixtures was incubated with m6A antibody (Cell Signaling Technology, D9D9W, USA) and then pulled down using Pierce™ Protein A/G Magnetic Beads (Thermo Fisher Scientific, 88802, USA) overnight. The enriched m6A positive RNAs were then eluted and purified by NucleoSpin RNA Clean-Up (Macherey-Nagel, 740948.25, USA), and the amounts of m6A-modified Vegfa mRNA or negative control RNAs were determined by reverse transcription and qPCR.

In vivo retinal toxicity = details: FTO inhibition

Cc1noc(C)c1-c1cc(Cl)c(Nc2ccccc2C(=O)NO)c(Cl)c1 [FB23-2]
VEGFA release (mouse BMDMs): inhibits VEGFA release
VEGFA release (mouse BMDMs; listed as FTO inhibitor): reduction in mouse VEGFA release
VEGFA release (Human THP-1 cells): inhibits VEGFA release
VEGFA protein levels in laser treated RPE-choroid tissue (Wild type C57BL/6J mice): inhibits VEGFA release in vivo
VEGFA protein levels in laser treated RPE-choroid tissue (Wild type C57BL/6J mice; listed as selective inhibitor): suppressed VEGFA protein levels
VEGFA release (human ARPE-19 cells): suppressed the VEGFA release
Level of m6A methylated Vegfa mRNA (Vegfa mRNA): increase the level of methylated (m6A) VEGFA mRNA
Level of m6A methylated Vegfa mRNA (Vegfa mRNA; listed as FTO inhibitor): significantly increased the abundance of m6A methylated Vegfa mRNA
In vivo retinal toxicity (In vivo retinal toxicity): did not observe in vivo retinal toxicity
